Experimental data as given in patent US20160038449A1, “MULTI-COMPONENT PHARMACEUTICALS FOR TREATING DIABETES” (Complexa, Inc., priority 2010, published 2016).

Experiments:
ob/ob mice [1] = assay: Insulin sensitivity: blood glucose after administration of insulin in ob/ob mice; type: in vivo; conditions: 120 minute time course (FIG. 6)
[2] = parameters: species or system mice; conditions: mouse, in vivo
Procedure: In addition to reducing blood glucose levels, substantially no increase in body weight was observed when nitro-oleic acid is administered to mice as compared to mice administered a vehicle control, oleic acid, or rosiglitazone.

WT mice [3] = assay: Blood glucose level of fed WT mice after administration; type: in vivo; conditions: for blood glucose level: fed WT mice, level maintained over the study (FIG. 1), vehicle control about 170 mg/dL
Procedure: Oleic acid, nitro-oleic acid, rosiglitazone, or a vehicle control were administered to fed WT mice, and the blood glucose level of these mice was monitored.

ob/ob mice [4] = assay: Blood glucose level of ob/ob mice after administration; type: in vivo; conditions: ob/ob mice (FIG. 2)
Description: Similar results are observed in experiments involving ob/ob mice.

WT mice [5] = assay: Insulin sensitivity: blood glucose after administration of insulin in WT mice; type: in vivo; conditions: 120 minute time course (FIG. 5)

Compound | blood glucose levels after administration of insulin (ob/ob mice [1]) | change of body weight over the course of the study [2] | blood glucose level (WT mice [3]) | change of blood glucose level over the course of the study (ob/ob mice [4]) | blood glucose levels after administration of insulin (WT mice [5]) | change of blood glucose level over the course of the study (WT mice [3]; fed WT mice (FIG. 1))
9- or 10-nitro octadecenoic acid [nitro-oleic acid] | substantial decrease in blood glucose levels over the course of the 120 minute time period | initially decreased (days 0-10), and then remained substantially constant over the second half of the study | about 125 mg/dL | effectively reduced the blood glucose level over the course of the study | initial drop in blood glucose levels after administration of insulin followed by an increase in blood glucose back to normal levels about 120 minutes after the administration of insulin | 
CN(CCOc1ccc(CC2SC(=O)NC2=O)cc1)c1ccccn1 (centres unmarked) [rosiglitazone] |  | steady increase in body weight over the course of the study | about 150 mg/dL |  |  | 
CCCCCCCC/C=C\CCCCCCCC(=O)O [oleic acid] | increased over the 120 minute time course | steady increase in body weight over the course of the study |  | increased blood glucose level over the course of the study |  | increased blood glucose levels over the course of the study
